In brackets after ≈: the same amount, converted by molar mass.
Settings: buffer; pH 7.4; 200.0 µM

| SMILES | solubility kinetic [µg/mL] |
| --- | --- |
| CCc1cccc(C)c1N=Cc1c(O)c2ccccc2oc1=O | 0.9 (≈ 2.93 µM) |
| COc1cccc(OC)c1C(=O)Nc1ccccc1Sc1ccccc1 | 3.6 (≈ 9.85 µM) |
| CC(=O)c1ccc(-c2ccc(C(=O)Nc3nc(-c4ccccn4)cs3)o2)cc1 | 4.9 (≈ 12.6 µM) |
| Cl.OC(CNCc1ccc(Cl)c(Cl)c1)c1ccccc1 (stereo not drawn) | 47.7 |
| Cc1ccc(NC(=O)CNS(=O)(=O)c2ccc(F)cc2)cc1C | 6.7 (≈ 19.9 µM) |
| O=C(CSc1cccc[n+]1[O-])Nc1cc(Cl)ccc1[N+](=O)[O-] | > 51 |
| CCN1CCN(S(=O)(=O)c2ccc(OC)cc2)CC1 | 36.8 (≈ 129 µM) |
| Cc1cc(NC(=O)Cc2ccccc2[N+](=O)[O-])no1 | 16.6 (≈ 63.5 µM) |
| CCN(C(=O)CSc1nc2ccc(C)cc2[nH]1)C1CCS(=O)(=O)C1 (stereo not drawn) | > 55.1 |
| Cn1c2ccccc2c2nnc(SCCN3CCOCC3)nc21 | > 49.4 |
| Cc1cccc(C)c1NC(=O)CSC(=S)N1CCCC1 | 9.6 (≈ 31.1 µM) |
| COc1cc2ccccc2cc1C(=O)NCc1ccncc1 | > 43.9 |
| CCOC(=O)C1(Cc2ccc(Cl)cc2)CCN(C2CCC2)CC1 | 44 (≈ 131 µM) |
| N#Cc1cc([N+](=O)[O-])ccc1N1CCN(c2ccccc2O)CC1 | 2.4 (≈ 7.4 µM) |
| COc1cc(S(=O)(=O)N(C)C2CCCCC2)c(C)cc1C | 1.5 (≈ 4.82 µM) |
| COc1ccc(OC(C)C(=O)NCC2CCCO2)cc1 (stereo not drawn) | > 41.9 |
| CCc1sc(C(=O)Nc2ccc3c(c2)OCO3)cc1C | 4.9 (≈ 16.9 µM) |
| O=C(O)c1ccc(NCc2cccnc2)c([N+](=O)[O-])c1 | > 41 |
| O=C(NC(=S)NCc1ccccc1)c1ccc(Br)cc1 | < 0.4 |
| COc1ccc(S(=O)(=O)N2CCOCC2)cc1NC(=O)COc1ccc2ccc(=O)oc2c1 | 6 (≈ 12.6 µM) |
| COc1ccc(Cl)cc1-c1csc(N)n1 | 34.1 (≈ 142 µM) |
| C=CCOc1c(Cl)cc(CNc2nccs2)cc1OC | 38.1 (≈ 123 µM) |

| SMILES | solubility kinetic [µg/mL] |
| --- | --- |
| Cc1ccc(CNC(=O)CNC(=O)c2ccc(Br)o2)cc1 | 14.6 (≈ 41.6 µM) |
| COc1ccc(-c2cc3ccccc3[nH]2)cc1 | 1.4 (≈ 6.27 µM) |
| COc1ccc(N2C(=O)C(F)(F)C2c2ccc(C)cc2)cc1OC (stereo not drawn) | < 0.7 |
| CC(=O)c1c(C)[nH]c(C(=O)OCc2cc(-c3ccco3)on2)c1C | 2.5 (≈ 7.61 µM) |
| Nc1nc(-c2ccc3ccccc3c2)cs1 | 11.8 (≈ 52.1 µM) |
| CCCOc1cccc(C(=O)NCCNC(=O)c2cnccn2)c1 | 48 (≈ 146 µM) |
| COc1ccc(/C=C2\SC(N3CCCCC3)=NC2=O)cc1OC | 8.2 (≈ 24.7 µM) |
| COc1cccc(NC(=O)C2COc3ccccc3O2)c1 (stereo not drawn) | > 42.8 |
| C[C@H](NC(=O)[C@@H]1Cc2ccccc2CN1)C(=O)NC1CCCC1 | > 47.3 |
| O=C(CCc1ccc(S(=O)(=O)N2CCOCC2)cc1)OCC(=O)c1ccccc1 | 7.6 (≈ 18.2 µM) |
| CSc1nc2ncnc(N)c2[nH]1 | > 27.2 |
| O=[N+]([O-])c1ccccc1NCc1ccccc1Cl | < 0.3 |
| N/C(=N\OC(=O)Nc1ccccc1)c1cccc(C(F)(F)F)c1 | 27.9 (≈ 86.3 µM) |
| COc1ccc(-c2csc(Nc3cccc(C)n3)n2)cc1 | < 0.2 |
| O=C(NCc1cccc(Cl)c1)c1ccncc1 | > 37 |
| Cc1ccc(OCCn2cnc(Cl)c2Cl)cc1 | 31.7 (≈ 117 µM) |
| COc1ccccc1NC(=O)C1CCN(C(=O)c2ccco2)CC1 | > 49.3 |
| O=C(COc1ccc2c(c1)OCO2)NCc1cccs1 | > 43.7 |
| Cc1ccc(N2CCN(C(=O)NC3CCCCC3)CC2C)cc1 (stereo not drawn) | > 47.3 |
| CCOC(=O)CN1C(=O)NC2(CCCc3ccccc32)C1=O (stereo not drawn) | > 45.3 |
| COc1ccc([N+](=O)[O-])cc1NC(=S)NC(C)=O | 2 (≈ 7.43 µM) |
| O=C(CSc1nc2ccccc2o1)Nc1nccs1 | 2 (≈ 6.86 µM) |

| SMILES | solubility kinetic [µg/mL] |
| --- | --- |
| O=C(NC(=S)Nc1cccc(-c2ccc(CO)o2)c1)c1cccs1 | 4.7 (≈ 13.1 µM) |
| COc1ccc(-c2nc(C)ncc2-c2ccccc2)c(O)c1 | 6.4 (≈ 21.9 µM) |
| CCc1cc2c(NC3CCCC3)ncnc2s1.Cl | 30.8 |
| CC(C)N(Cc1cc2ccccc2[nH]c1=O)C(=O)c1ccco1 | > 46.6 |
| CN1/C(=C/C(=O)C2CC2)C(C)(C)c2ccccc21 | 8.3 (≈ 34.4 µM) |
| Cc1cc(=S)nc(-c2ccccn2)[nH]1 | 28.6 (≈ 141 µM) |
| COc1cccc(C(=O)c2cc3cc(Cl)ccc3[nH]2)c1 | < 0.6 |
| Cc1cccc(-c2nc(C#N)c(N3CCCCC3)o2)c1 | 0.4 (≈ 1.5 µM) |
| Cc1cccnc1NC(=O)CCC(=O)c1cccs1 | > 41.2 |
| Cc1ccc(C)c(NC(=O)CN(C)C(=O)c2ccncc2)c1 | 39.1 (≈ 131 µM) |
| O=C(CNC(=O)c1ccccc1F)c1ccccc1 | 32.5 (≈ 126 µM) |
| CC(C)OCc1ccc(C(=O)N2CCN(CC(=O)N3CCCC3)CC2)cc1 | > 56 |
| COc1cccc(C(=O)N2CCOCC2)c1OC | > 37.7 |
| Cc1[nH]c2ccccc2c1C(=O)CN1CC(C)OC(C)C1 (stereo not drawn) | 39.4 (≈ 138 µM) |
| Cc1cc(=O)[nH]c(SCC(=O)N2CCCC2)n1 | > 38 |
| CCCc1cnc(N2CCN(S(C)(=O)=O)CC2)nc1 | > 42.7 |
| O=C(NCc1ccc2c(c1)OCO2)c1cc(Cl)ccc1Cl | 1.7 (≈ 5.24 µM) |
| COC(=O)c1ccc2c(=O)[nH]c(COC(=O)c3[nH]c(C)c(C(C)=O)c3C)nc2c1 | 18.1 (≈ 45.5 µM) |
| COc1ccc(/C=C2\N=C(C)OC2=O)cc1OC | 36.9 (≈ 149 µM) |
| Cc1[nH]c2ccccc2c1C(c1ccncc1)N1CCCCC1 (stereo not drawn) | > 45.8 |
| CN(CC(=O)NC(=O)NC1CCCCC1)c1ccccc1 | 6.7 (≈ 23.2 µM) |
| CCN(CC)c1nc2ccccc2n(Cc2cccc(OC)c2)c1=O | 0.3 (≈ 0.889 µM) |

| SMILES | solubility kinetic [µg/mL] |
| --- | --- |
| Cc1ccc(NC(=O)C(=O)NCc2ccncc2)cc1 | 29.6 (≈ 110 µM) |
| CCCN(CCC)S(=O)(=O)c1ccc(C(=O)NCc2ccco2)cc1 | 12.7 (≈ 34.8 µM) |
| O=C(O)C(=O)O.OC(CN1CCCC1)Cn1ccc2ccccc21 (stereo not drawn) | > 50.2 |
| CC1CCCN(Cc2nc(Cc3ccccc3Cl)no2)C1 (stereo not drawn) | 27 (≈ 88.3 µM) |
| C=CCOc1ccccc1CN1CCCCCC1 | 28.7 (≈ 117 µM) |
| O=C(NCc1cccnc1)C1CCC(c2ccc(Cl)cc2)CC1 (stereo not drawn) | 14.9 (≈ 45.3 µM) |
| Cc1ccc(-c2nc(-c3ccncc3)no2)cc1 | 1.1 (≈ 4.64 µM) |
| Cn1c(SCC(=O)Nc2ccc(Cl)cc2)nc(O)cc1=O | > 48.9 |
| Cc1ccnc(NCc2c(O)ccc3ccccc23)c1 | 9.2 (≈ 34.8 µM) |
| O=C(CSc1ccccn1)Nc1cccc([N+](=O)[O-])c1 | 38 (≈ 131 µM) |
| CCn1c(C)c(CS(=O)(=O)c2ccccc2)[nH]c1=O | 9.8 (≈ 35 µM) |
| CCN(CC)Cc1nc2sc(C)c(C)c2c(=O)[nH]1 | 34.9 (≈ 132 µM) |
| Brc1ccc(OCCCCN2CCCCC2)cc1 | 40.7 (≈ 130 µM) |
| Cc1cc(S(=O)(=O)Nc2cccnc2)c(Cl)cc1Cl | 4.5 (≈ 14.2 µM) |
| COc1cc(C(=O)Nc2ccc(C(=O)O)cc2)ccc1OC(C)=O | > 49.4 |
| COc1cc(CC(=O)N2CCN(C(=O)C3CCCO3)CC2)cc(OC)c1OC (stereo not drawn) | > 58.9 |
| Cc1sc2ncnc(NCC(O)c3ccccc3)c2c1C (stereo not drawn) | 6.6 (≈ 22 µM) |
| CC(C)(C)OC(=O)C(C)(C)O/N=C(\C(=O)O)c1csc(N)n1 | > 49.4 |
| Nc1cc(S(=O)(=O)N2CCOCC2)ccc1N1CCCCC1 | 42.2 (≈ 130 µM) |
| N#Cc1ccccc1OCC(=O)NC(=O)NCc1ccco1 | 7.4 (≈ 24.7 µM) |
| O=C(/C=C\c1ccccc1)Nc1ccc(NC(=O)c2ccco2)cc1 | < 0.4 |
| O=[N+]([O-])c1ccccc1CN1CC=C(c2ccc(F)cc2)CC1 | 2.3 (≈ 7.36 µM) |
